Values of other authors, collected in patent US20100093659A1, “POLYVALENT BIOCONJUGATES” (GLYKOS FINLAND OY, priority 2006, published 2010).

Tested on: Helicobacter pylori
Settings: monomeric form

Question: With `CC(=O)N[C@H]1[C@H]([C@H](O)[C@H](O)CO)O[C@@](O[C@H]2[C@@H](O)[C@@H](CO)O[C@@H](O[C@H]3[C@H](O)[C@@H](O)C(O)O[C@@H]3CO)[C@@H]2O)(C(=O)O)C[C@@H]1O` (stereo partly shown) [3′-sialyllactose] as the compound, how does the “concentrations at which adhesion of Helicobacter pylori to gastrointestinal epithelial cells was inhibited” value read?
Answer: Its value is “millimolar”.
